This passage reports IC50 results from US20240158412A1 (Faxian Therapeutics, LLC, priority 2021, published 2024).

By IC50 is commonly meant the midpoint of a concentration-inhibition curve.

Molecules are shown by their SMILES.
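Also: fluorescence intensity readout of USP7 enzymatic activity, reaction incubated 90 min at room temperature.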

The target of this experiment is USP7 (Homo sapiens, UniProt Q93009). Briefly: biochemical.
USP7, sequence (Q93009 whole entry): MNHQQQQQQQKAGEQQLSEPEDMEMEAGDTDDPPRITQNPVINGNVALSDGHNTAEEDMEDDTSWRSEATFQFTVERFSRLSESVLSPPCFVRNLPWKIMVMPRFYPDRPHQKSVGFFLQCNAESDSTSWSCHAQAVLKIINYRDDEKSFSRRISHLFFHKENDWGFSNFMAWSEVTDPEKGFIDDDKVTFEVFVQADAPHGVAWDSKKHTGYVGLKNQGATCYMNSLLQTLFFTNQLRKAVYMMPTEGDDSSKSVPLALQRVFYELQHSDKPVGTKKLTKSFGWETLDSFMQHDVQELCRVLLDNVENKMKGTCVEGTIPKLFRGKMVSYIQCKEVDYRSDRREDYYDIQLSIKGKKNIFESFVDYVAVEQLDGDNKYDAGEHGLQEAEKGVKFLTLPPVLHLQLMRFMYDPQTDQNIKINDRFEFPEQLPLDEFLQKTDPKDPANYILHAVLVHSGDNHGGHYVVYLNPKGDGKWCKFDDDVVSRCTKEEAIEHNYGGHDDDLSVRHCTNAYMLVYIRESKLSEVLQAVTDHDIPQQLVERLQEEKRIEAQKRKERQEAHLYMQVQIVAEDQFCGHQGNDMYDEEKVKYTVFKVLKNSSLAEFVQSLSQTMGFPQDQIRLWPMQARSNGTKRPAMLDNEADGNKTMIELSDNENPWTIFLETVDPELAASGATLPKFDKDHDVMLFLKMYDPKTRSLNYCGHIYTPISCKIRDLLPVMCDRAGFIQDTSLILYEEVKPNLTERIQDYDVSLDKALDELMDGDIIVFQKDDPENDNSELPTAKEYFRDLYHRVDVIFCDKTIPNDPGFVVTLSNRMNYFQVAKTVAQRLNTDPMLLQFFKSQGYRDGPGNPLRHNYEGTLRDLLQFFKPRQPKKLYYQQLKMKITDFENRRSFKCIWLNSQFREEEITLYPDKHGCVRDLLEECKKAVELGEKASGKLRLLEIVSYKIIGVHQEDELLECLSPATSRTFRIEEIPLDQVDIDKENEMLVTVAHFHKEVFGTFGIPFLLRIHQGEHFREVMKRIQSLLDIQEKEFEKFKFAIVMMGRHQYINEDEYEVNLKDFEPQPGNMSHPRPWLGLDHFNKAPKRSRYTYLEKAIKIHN
In turn, `O=C1CCC(=O)N1Cc1cc2ncnc(-c3cc(Cl)cc4c3N([C@@H]3CNC5(CCC5)C3)C[C@H]3C[C@@H]43)c2s1` [Example 167a, 1-((4-((1aS,7bR)-6-chloro-3-((S)-5-azaspiro[3.4]octan-7-yl)-1a,2,3,7b-tetrahydro-1H-cyclopropa[c]quinolin-4-yl)thieno[3,2-d]pyrimidin-6-yl)methyl)pyrrolidine-2,5-dione] displayed an IC50 below 0.01 µM.
For `O=C1CCC(=O)N1Cc1cc2nccc(-c3cc(Cl)cc4c3N([C@@H]3CC[C@@]5(CCCN5)C3)CCC4)c2s1` (single isomer, unassigned) [Example 179b] the value was 0.01 to 0.1 µM; for `Cn1ccc(=O)n(Cc2cc3nccc(-c4cc(Cl)cc5c4N([C@H]4CCNC4)CCC5)c3s2)c1=O` [Example 63, (S)-3-((7-(6-chloro-1-(pyrrolidin-3-yl)-1,2,3,4-tetrahydroquinolin-8-yl)thieno[3,2-b]pyridin-2-yl)methyl)-1-methylpyrimidine-2,4(1H,3H)-dione], below 0.01 µM; for `O=C1C2CC2C(=O)N1Cc1cc2nccc(-c3cc(Cl)cc4c3N([C@H]3CNC(CO)(CO)C3)CCO4)c2s1` (single isomer, unassigned) [Example 212a], below 0.01 µM.
For `O=C1OC[C@H](C(F)(F)F)N1Cc1cc2nccc(-c3cc(Cl)cc4c3N([C@@H]3CNC5(CCC5)C3)CCC4)c2s1` [Example 158, (R)-3-((7-(6-chloro-1-((S)-5-azaspiro[3.4]octan-7-yl)-1,2,3,4-tetrahydroquinolin-8-yl)thieno[3,2-b]pyridin-2-yl)methyl)-4-(trifluoromethyl)oxazolidin-2-one] the value was below 0.01 µM; for `CN1C[C@@H](N2CCCc3cc(Cl)cc(-c4ccnc5cc(CN6C(=O)CCC6=O)sc45)c32)CC12CCC2` [Example 140, (S)-1-((7-(6-chloro-1-(5-methyl-5-azaspiro[3.4]octan-7-yl)-1,2,3,4-tetrahydroquinolin-8-yl)thieno[3,2-b]pyridin-2-yl)methyl)pyrrolidine-2,5-dione], below 0.01 µM; for `Cc1cnn(Cc2cc3nccc(-c4cc(C#N)cc5c4N([C@@H]4CNC(C)(C)C4)CCO5)c3s2)c(=O)c1` [Example 134, (S)-4-(5,5-dimethylpyrrolidin-3-yl)-5-(2-((4-methyl-6-oxopyridazin-1(6H)-yl)methyl)thieno[3,2-b]pyridin-7-yl)-3,4-dihydro-2H-benzo[b][1,4]oxazine-7-carbonitrile], below 0.01 µM.
Under `CC1(C)C[C@H](N2CCOc3cc(C#N)cc(-c4ccnc5cc(Cn6ncc(C7CC7)cc6=O)sc45)c32)CN1` [Example 135, (S)-5-(2-((4-cyclopropyl-6-oxopyridazin-1(6H)-yl)methyl)thieno[3,2-b]pyridin-7-yl)-4-(5,5-dimethylpyrrolidin-3-yl)-3,4-dihydro-2H-benzo[b][1,4]oxazine-7-carbonitrile] stands below 0.01 µM; under `O=C1CCC(=O)N1Cc1cc2nccc(-c3cc(Cl)cc4c3N(C3CNC5(CC(F)C5)C3)CCC4)c2s1` (centres unmarked) [Example 211, 1-((7-(6-chloro-1-(2-fluoro-5-azaspiro[3.4]octan-7-yl)-1,2,3,4-tetrahydroquinolin-8-yl)thieno[3,2-b]pyridin-2-yl)methyl)pyrrolidine-2,5-dione], below 0.01 µM; under `CC1(C)C[C@H](N2CCCc3cc(C#N)cc(-c4ccnc5cc(CN6C(=O)CN(C7CC(F)(F)C7)C6=O)sc45)c32)CN1` [Example 127, (S)-8-(2-((3-(3,3-difluorocyclobutyl)-2,5-dioxoimidazolidin-1-yl)methyl)thieno[3,2-b]pyridin-7-yl)-1-(5,5-dimethylpyrrolidin-3-yl)-1,2,3,4-tetrahydroquinoline-6-carbonitrile], below 0.01 µM.
The compound `COCCc1cnn(Cc2cc3nccc(-c4cc(Cl)cc5c4N([C@H]4CCNC4)CCC5)c3s2)c(=O)c1` [Example 66, (S)-2-((7-(6-chloro-1-(pyrrolidin-3-yl)-1,2,3,4-tetrahydroquinolin-8-yl)thieno[3,2-b]pyridin-2-yl)methyl)-5-(2-methoxyethyl)pyridazin-3(2H)-one] came in with an IC50 below 0.01 µM.
On to `O=C1CCC(=O)N1Cc1cc2nccc(-c3cc(Cl)cc4c3N([C@@H]3CNC5(CCC5)C3)CCC4)c2s1` (single isomer, unassigned) [Example 139b], for which the IC50 is below 0.01 µM.
Under `O=C1CCC(=O)N1Cc1cc2nccc(-c3cc(Cl)cc4c3N(CC3CCNCC3)CCC4)c2s1` [Example 49, 1-[[7-[6-chloro-1-(4-piperidylmethyl)-3,4-dihydro-2H-quinolin-8-yl]thieno[3,2-b]pyridin-2-yl]methyl]pyrrolidine-2,5-dione] stands 0.101 to 1 µM.
Compound `O=c1c2ccccc2ncn1Cc1cc2nccc(-c3cc(Cl)cc4c3N(C3CNC3)CCC4)c2s1` [Example 19, 3-[[7-[1-(azetidin-3-yl)-6-chloro-3,4-dihydro-2H-quinolin-8-yl]thieno[3,2-b]pyridin-2-yl]methyl]quinazolin-4-one] came in with an IC50 above 1 µM.
Under `O=c1ccn(CC(F)(F)F)c(=O)n1Cc1cc2ncnc(-c3cc(Cl)cc4c3N([C@H]3CCNC3)CCC4)c2s1` [Example 91, (S)-3-((4-(6-chloro-1-(pyrrolidin-3-yl)-1,2,3,4-tetrahydroquinolin-8-yl)thieno[3,2-d]pyrimidin-6-yl)methyl)-1-(2,2,2-trifluoroethyl)pyrimidine-2,4(1H,3H)-dione] stands below 0.01 µM; under `O=C1CCC(=O)N1Cc1cc2nccc(-c3cc(Cl)cc4c3N(C3CNC3)CCC4)c2s1` [Example 1, 1-((7-(1-(azetidin-3-yl)-6-chloro-1,2,3,4-tetrahydroquinolin-8-yl)thieno[3,2-b]pyridin-2-yl)methyl)pyrrolidine-2,5-dione], 0.01 to 0.1 µM.
Regarding `CC1(C)C[C@H](N2CCCc3cc(C#N)cc(-c4ccnc5cc(Cn6ncc(C7CC7)cc6=O)sc45)c32)CN1` [Example 128, (S)-8-(2-((4-cyclopropyl-6-oxopyridazin-1(6H)-yl)methyl)thieno[3,2-b]pyridin-7-yl)-1-(5,5-dimethylpyrrolidin-3-yl)-1,2,3,4-tetrahydroquinoline-6-carbonitrile], the IC50 is below 0.01 µM.
Turning to `Cc1cnn(Cc2cc3nccc(-c4cc(Cl)cc5c4N([C@@H]4CNC6(CCC6)C4)CCC5)c3s2)c(=O)c1` [Example 153, (S)-2-((7-(6-chloro-1-(5-azaspiro[3.4]octan-7-yl)-1,2,3,4-tetrahydroquinolin-8-yl)thieno[3,2-b]pyridin-2-yl)methyl)-5-methylpyridazin-3(2H)-one], the IC50 was below 0.01 µM.
Under `Oc1ccnn1Cc1cc2nccc(-c3cc(Cl)cc4c3N(C3CNC3)CCC4)c2s1` [Example 37, 2-[[7-[1-(azetidin-3-yl)-6-chloro-3,4-dihydro-2H-quinolin-8-yl]thieno[3,2-b]pyridin-2-yl]methyl]pyrazol-3-ol] stands above 1 µM; under `O=C1CCC(=O)N1Cc1cc2nccc(-c3cc(Cl)cc4c3N(C3CC5(CCCN5)C3)CCC4)c2s1` (centres unmarked) [Example 180, 1-((7-(6-chloro-1-(5-azaspiro[3.4]octan-2-yl)-1,2,3,4-tetrahydroquinolin-8-yl)thieno[3,2-b]pyridin-2-yl)methyl)pyrrolidine-2,5-dione], 0.01 to 0.1 µM.
As for `O=C1CCC(=O)N1Cc1cc2nccc(-c3cc(Cl)cc4c3N([C@@H]3CCCNC3)CCC4)c2s1` (single isomer, unassigned) [Example 51b], the IC50 was 0.01 to 0.1 µM.
In turn, `Cc1ccc(=O)n(Cc2cc3nccc(-c4cc(Cl)cc5c4N(C4CNC4)CCC5)c3s2)n1` [Example 17, 2-[[7-[1-(azetidin-3-yl)-6-chloro-3,4-dihydro-2H-quinolin-8-yl]thieno[3,2-b]pyridin-2-yl]methyl]-6-methyl-pyridazin-3-one] came in with an IC50 of 0.01 to 0.1 µM.
On to `C[C@@H]1C[C@H](N2CCCc3cc(Cl)cc(-c4ccnc5cc(Cn6c(=O)ccn(CC(F)(F)F)c6=O)sc45)c32)CN1` (single isomer, unassigned) [Example 95b], for which the IC50 was in the range of 0.01 to 0.1 µM.
Regarding `CN1CCC(CN2CCCc3cc(Cl)cc(-c4ccnc5cc(CN6C(=O)CCC6=O)sc45)c32)CC1` [Example 50, 1-[[7-[6-chloro-1-[(1-methyl-4-piperidyl)methyl]-3,4-dihydro-2H-quinolin-8-yl]thieno[3,2-b]pyridin-2-yl]methyl]pyrrolidine-2,5-dione], the IC50 lay in the range of 0.01 to 0.1 µM.
With `O=C1CCC(=O)N1Cc1cc2nccc(-c3cc(C(F)(F)F)cc4c3N(C3CNC5(CCC5)C3)CCO4)c2s1` (single isomer, unassigned) [Example 175a], the IC50 was in the range of 0.101 to 1 µM.
As to `N#CC1(Cn2ccc(=O)n(Cc3cc4nccc(-c5cc(Cl)cc6c5N([C@H]5CCNC5)CCC6)c4s3)c2=O)CC1` [Example 70, (S)-1-((3-((7-(6-chloro-1-(pyrrolidin-3-yl)-1,2,3,4-tetrahydroquinolin-8-yl)thieno[3,2-b]pyridin-2-yl)methyl)-2,4-dioxo-3,4-dihydropyrimidin-1(2H)-yl)methyl)cyclopropanecarbonitrile], the IC50 was below 0.01 µM.
For `O=c1ccn(CC(F)(F)F)c(=O)n1Cc1cc2nccc(-c3cc(Cl)cc4c3N(C3CNC3)CCC4)c2s1` [Example 24, 3-[[7-[1-(azetidin-3-yl)-6-chloro-3,4-dihydro-2H-quinolin-8-yl]thieno[3,2-b]pyridin-2-yl]methyl]-1-(2,2,2-trifluoroethyl)pyrimidine-2,4-dione] the value was below 0.01 µM.
For `N#Cc1cc2c(c(-c3ncnc4cc(Cn5c(=O)ccn(CC(F)(F)F)c5=O)sc34)c1)N([C@H]1CCNC1)CCC2` [Example 92, (S)-8-(6-((2,6-dioxo-3-(2,2,2-trifluoroethyl)-2,3-dihydropyrimidin-1(6H)-yl)methyl)thieno[3,2-d]pyrimidin-4-yl)-1-(pyrrolidin-3-yl)-1,2,3,4-tetrahydroquinoline-6-carbonitrile] the value was below 0.01 µM; for `N#Cc1cc(-c2ccnc3cc(Cn4ncc(C5(C(F)(F)F)CC5)cc4=O)sc23)c2c(c1)C1CC1CN2[C@@H]1CN[C@@H](CO)C1` (stereo in doubt) [Example 194b, (1aS,7bR)-3-((3S,5R)-5-(hydroxymethyl)pyrrolidin-3-yl)-4-(2-((6-oxo-4-(1-(trifluoromethyl)cyclopropyl)pyridazin-1(6H)-yl)methyl)thieno[3,2-b]pyridin-7-yl)-1a,2,3,7b-tetrahydro-1H-cyclopropa[c]quinoline-6-carbonitrile], 0.01 to 0.1 µM.
